# Assay results reported in patent US4451485A, “Treatment of cardio-vascular diseases with 3-(2,2,2-trimethylhydrazinium) propionate dihydrate” (Institu Organicheskogo Sinteza Akademii Nauk Latviiskoi SSR, priority 1981, dated 1984).
# Where “and” joins values, the source holds several entries; their conditions need not be identical. Equal entries are not always repeated.
# Tests used:
# [1] = Threshold of electric fibrillation of auricles and ventricles in cats; type: in vivo
# Protocol: Furthermore, the preparation according to the present invention was tested for specific antiarrhythmic and antianginal effects. […] The effect of the novel pharmaceutical composition according to the present invention was studied on cats weighing 2.9-3.6 kg. The preparation was used as a 10% aqueous solution containing 3-(2,2,2-trimethylhydrazinium)propionate for the determination of the threshold value of electric fibrillation of auricles and ventricles. Under artificial respiration after opening of the thorax and pericardium, needle-like electrodes were applied to the right auricula and apex of the left ventricle. The irritation was effected by square pulses of 1 m.s., 15 st/s.
# For the comparison of preparations, as the criterion of the range of therapeutic effect, there was used the ratio of the half-lethal dose to the half-effective dose (LD50 /ED50) which was referred to as the antiarrhythmic index. […] The comparative study of the antiarrhythmic activity of pharmaceutical preparations using an acotine model of arrhythmia was effected in experiments on white rats weighing 190-240 g. The test preparations were administered intraperitoneally 10-40 minutes before administration of aconitine.
# [2] = Clinical study in patients with ischemic heart disease, peroral, 4 weeks; type: in vivo, men and women (patients with IHD); conditions: for hemodynamic impact: before treatment 14.6 + 1.2; for pulse pressure: before treatment 47.6 + 0.6; for isometric contraction: before treatment 53 + 2; for asynchron. contraction: before treatment 56 + 2; for distolic pressure: before treatment 68.2 + 0.6; for heart rate: before treatment 72.3 + 1.5; for average dynamic pressure: before treatment 89.7 + 1.2; for tension period: before treatment 109 + 4; for lateral systolic pressure: before treatment 115.8 + 0.5; for final systolic pressure: before treatment 130.4 + 2.0; for expulsion phase: before treatment 222 + 4; for rate of heart relaxation: before treatment 250 + 9; for volume of heart ejection: before treatment 315 + 15; for diastol.: before treatment 499 + 14; for involution period: before treatment 830 + 26; for rate of pressure raise: before treatment 1,188 + 30
# From the text: The following hemodynamic parameters were studied: rate of the heart's beat (RHB), electrocardiogram (ECG), all types of arterial pressure with the curve recording on a Mechanocardiograph 063 (Savitsky's model), beat ejection according to the Wremser-Ranke method, speed of pulse wave propagation, phase analysis of the left ventricle systole on an instrument Mingograph M-34, as well as amplitude time parameters (volume rate of ejection VRE, speed of pressure growth (SPG), rate of heart relaxation (RHR)).
# For evaluation of contraction properties of myocardium separately during its systolic and diastolic periods of contraction there were used amplitude-time characteristics rate of heart ejection (RHE), rate of pressure rise (RPR) and rate of heart relaxation (RHR).
# The rate of heart ejection (RHE) is determined by the formula: (BV6/E), wherein BV--beat volume in ml, E--time of the expulsion phase in seconds.
# The rate of pressure rise is determined by the formula: [formula] wherein DP--diastolic pressure in mm, Hg, 5--conventional value of the final diastolic pressure in the aorta, IC--isometric contraction. RPR characterized contractive properties of the myocardium during the period of closed valves and its ability to rapidly surpass the value of pressure in the aorta for opening of the aortic valves.
# The rate of heart relaxation (RHR) characterizes activity of the myocardium at the moment of diastole and is determined by the formula [formula] wherein SP--systolic pressure in the brachial artery in mm Hg, 5--conventional value of the final diastolic pressure in the aorta, D--duration of the diastolic period in seconds.
# [3] = Therapeutic effect on Strophanthin G arrhythmia in rabbits; type: in vivo
# Protocol: To investigate the therapeutic effect of the preparation according to the present invention relative to the Strophanthin arrhythmia, another series of experiments was carried out. Strophanthin was intravenously administered to rabbits of both sexes with a mass of 3.0 to 3.8 kg at a general dose of 80 μg/kg which caused arrhythmia within 40-60 minutes. The test preparation was intravenously administered at the background of arrhythmia in the test group.
# After the administration of the preparation at a dose of 5 mg/kg the regular synusal rhythm was retained for 12±5 minutes on the average, whereafter arrhythmia was gradually renewed, but it could be again eliminated by a repeated administration of the preparation at a dose of 2-5 mg/kg. In such cases the sinusal rhythm was retained for 15 to 30 minutes and in the majority of tests arrhythmia never renewed. Furthermore, an experiment was carried out on narcotized guinea pigs with a mass of 600-710 g to which Strophanthin -K was administered into the femoral vein at a total dose of 500 μg/kg.
# [4] = Embryotoxic and teratogenic effects in rats; type: in vivo, white rats; conditions: up to 10,000 mg/kg perorally, any day of pregnancy
smiles,measurement,setting,value
"C[N+](C)(C)NCCC(=O)[O-] [3-(2,2,2-trimethylhydrazinium)propionate]",Increase of the threshold of electrical fibrillation of auricle and ventricles,[1]; 6 to 15 mg/kg intravenous,40-55%
same,ED50,"[1]; Felis catus, iv, read-out: ED50, electric irritation of cat's heart",10 ± 3.5 mg/kg
same,"Antiarrhythmic index LD50/ED50, electric irritation of cat's heart",[1]; intravenous,443 and 433
same,hemodynamic impact,[2]; 1st week,18.2 + 1.0
same,pulse pressure,[2]; 1st week,46.5 + 1.1
same,isometric contraction,[2]; 1st week,49 + 3 millisec.
same,asynchron. contraction,[2]; 1st week,55 + 4
same,distolic pressure,[2]; 1st week,69.9 + 1.3
same,heart rate,[2]; 1st week,67.8 + 1.8 beat/min
same,average dynamic pressure,[2]; 1st week,90.6 + 0.7
same,tension period,[2]; 1st week,104 + 2 milliseconds
same,lateral systolic pressure,[2]; 1st week,116.4 + 2.1
same,final systolic pressure,[2]; 1st week,134.6 + 1.6 mm/Hg
same,expulsion phase,[2]; 1st week,225 + 2 milliseconds
same,rate of heart relaxation,[2]; 1st week,238 + 10 mm Hg/sec
same,volume of heart ejection,[2]; 1st week,320 + 23 ml/sec
same,diastol.,[2]; 1st week,543 + 21 milliseconds
same,involution period,[2]; 1st week,873 + 33
same,rate of pressure raise,[2]; 1st week,"1,326 + 45 mm Hg/sec"
same,hemodynamic impact,[2]; 2nd week,24.6 + 0.7
same,pulse pressure,[2]; 2nd week,48.6 + 1.6
same,isometric contraction,[2]; 2nd week,46 + 4 millisec.
same,asynchron. contraction,[2]; 2nd week,54 + 2
same,distolic pressure,[2]; 2nd week,70.3 + 0.9
same,heart rate,[2]; 2nd week,64.3 + 1.3 beat/min
same,average dynamic pressure,[2]; 2nd week,91.2 + 1.2
same,tension period,[2]; 2nd week,100 + 4 milliseconds
same,lateral systolic pressure,[2]; 2nd week,118.9 + 1.7
same,final systolic pressure,[2]; 2nd week,143.5 + 1.8 mm/Hg
same,expulsion phase,[2]; 2nd week,230 + 3 milliseconds
same,rate of heart relaxation,[2]; 2nd week,229 + 8 mm Hg/sec
same,volume of heart ejection,[2]; 2nd week,322 + 13 ml/sec
same,diastol.,[2]; 2nd week,603 + 21 milliseconds
same,involution period,[2]; 2nd week,933 + 42
same,rate of pressure raise,[2]; 2nd week,"1,473 + 130 mm Hg/sec"
same,hemodynamic impact,[2]; 3rd week,24.9 + 1.5
same,pulse pressure,[2]; 3rd week,47.8 + 1.4
same,isometric contraction,[2]; 3rd week,43 + 2 millisec.
same,asynchron. contraction,[2]; 3rd week,56 + 4
same,distolic pressure,[2]; 3rd week,72.3 + 1.4
same,heart rate,[2]; 3rd week,60.1 + 1.6 beat/min
same,average dynamic pressure,[2]; 3rd week,92.0 + 1.8
same,tension period,[2]; 3rd week,99 + 3 milliseconds
same,lateral systolic pressure,[2]; 3rd week,120.1 + 1.4
same,final systolic pressure,[2]; 3rd week,145.0 + 2.4 mm/Hg
same,expulsion phase,[2]; 3rd week,232 + 4 milliseconds
same,rate of heart relaxation,[2]; 3rd week,209 + 8 mm Hg/sec
same,volume of heart ejection,[2]; 3rd week,374 + 14 ml/sec
same,diastol.,[2]; 3rd week,669 + 14 milliseconds
same,involution period,[2]; 3rd week,1000 + 42
same,rate of pressure raise,[2]; 3rd week,"1,581 + 54 mm Hg/sec"
same,hemodynamic impact,[2]; 4th week,25.0 + 0.7
same,pulse pressure,[2]; 4th week,53.6 + 1.2
same,isometric contraction,[2]; 4th week,33 + 2 millisec.
same,asynchron. contraction,[2]; 4th week,55 + 3
same,distolic pressure,[2]; 4th week,72.0 + 1.8
same,heart rate,[2]; 4th week,62.2 + 1.4 beat/min
same,average dynamic pressure,[2]; 4th week,92.2 + 1.0
same,tension period,[2]; 4th week,88 + 2 milliseconds
same,lateral systolic pressure,[2]; 4th week,125.6 + 0.7
same,final systolic pressure,[2]; 4th week,150.6 + 2.7 mm/Hg
same,expulsion phase,[2]; 4th week,235 + 3 milliseconds
same,rate of heart relaxation,[2]; 4th week,226 + 12 mm Hg/sec
same,volume of heart ejection,[2]; 4th week,357 + 17 ml/sec
same,diastol.,[2]; 4th week,642 + 14 milliseconds
same,involution period,[2]; 4th week,965 + 21
same,rate of pressure raise,[2]; 4th week,"2,030 + 68 mm Hg/sec"
same,Arterial pressure,[2]; peroral,growth of all types of AP
same,Electrocardiographic findings,[2]; peroral,"slight decrease of the rate of the heart's beat, disappearance of auricular and ventricular extrasystoles, reinversion of the T ripple and increase of its positive amplitude"
same,Phase analysis of the left ventricle,"[2]; peroral, during the treatment","the involution period T was definitely increased, the phase of expulsion E was reduced, the period of tension PT shortened"
same,Improvement of patients' state,"[2]; peroral, first week",considerable improvement of the patients' state of health
same,Duration regular sinus rhythm was retained,"[3]; 5 mg/kg, average",12 ± 5 min
same,Time to arrest of ventricular tachyarrhythmia,[3]; 1 to 3 mg/kg intravenous,1 to 2 min
same,Effect on ventricular tachyarrhythmia,"[3]; 1 to 3 mg/kg intravenous, majority of tests",temporarily arrested ventricular tachyarrhythmia
same,Changes in the complex QRST,[3]; intravenous,reduced
same,Duration sinusal rhythm was retained after repeated administration,"[3]; repeated administration, 2-5 mg/kg",15 to 30 min
same,Embryotoxic or teratogenic effects,[4],no embryotoxic or teratogenic effects
